These results are taken from patent US9073821B2, “Hydroxamic acid derivative” (priority 2010, dated 2015).

Bounds are passed on as bounds.

This experiment concerns the target Pseudomonas aeruginosa LpxC enzyme (Pseudomonas aeruginosa (strain ATCC 15692 / DSM 22644 / CIP 104116 / JCM 14847 / LMG 12228 / 1C / PRS 101 / PAO1), UniProt P47205). In words: biochemical. In kind it is biochemical. As to conditions: inhibitory activity on Pseudomonas aeruginosa LpxC enzyme, class symbols A/B/C; read-out: Enzyme inhibitory activity. On the procedure: Test 1: Evaluation of the Inhibitory Activity on Pseudomonas aeruginosa LpxC Enzyme
An inhibition curve was constructed for each test compound by performing the aforementioned reaction at varying concentrations of the test compound. From this inhibition curve, the concentration of the test compound at which the formation of the reaction product was suppressed by 50% was determined as the IC50 of the test compound, which was an index for the inhibitory activity on Pseudomonas aeruginosa LpxC enzyme.
In the case of `CNC(=O)C(C(=O)NO)N(C)C(=O)c1ccc(-c2ccc(C)cc2F)cc1` (centres unmarked) [Compound 23, 2-{[(2′-fluoro-4′-methylbiphenyl-4-yl)carbonyl](methyl)amino}-N-hydroxy-N′-methylpropanediamide], the IC50 is less than 10 nM.
With `CNC(=O)C(C(=O)NO)N(C)C(=O)c1ccc(-c2ccccc2)cc1O` (centres unmarked) [Compound 24, N-hydroxy-2-{[(3-hydroxybiphenyl-4-yl)carbonyl](methyl)amino}-N′-methylpropanediamide] the figure was more than 100 nM.
In the case of `CCCCCCCCOc1ccc(C(=O)N(C)C(C(=O)NC)C(=O)NO)cc1` (centres unmarked) [Compound 25, N-hydroxy-N′-methyl-2-{methyl[4-(octyloxy)benzoyl]amino}propanediamide], the IC50 fell in the range of 10 to 100 nM.
As to `CNC(=O)C(C(=O)NO)N(C)C(=O)c1ccc(-c2ccc3c(ccn3CCCCO)c2)cc1` (centres unmarked) [Compound 26, N-hydroxy-2-[{4-[1-(4-hydroxybutyl)-1H-indol-5-yl]benzoyl}(methyl)amino]-N′-methylpropanediamide], the IC50 is less than 10 nM.
The value for `CNC(=O)C(C(=O)NO)N(C)C(=O)c1ccc(-c2ccccc2)cc1F` (centres unmarked) [Compound 27, 2-{[(3-fluorobiphenyl-4-yl)carbonyl](methyl)amino}-N-hydroxy-N′-methylpropanediamide] was 10 to 100 nM.
The value for `CNC(=O)C(C(=O)NO)N(C)C(=O)c1ccc(-c2ccc(C)c(F)c2)cc1` (centres unmarked) [Compound 28, 2-{[(3′-fluoro-4′-methylbiphenyl-4-yl)carbonyl](methyl)amino}-N-hydroxy-N′-methylpropanediamide] was less than 10 nM; that for `CNC(=O)C(C(=O)NO)N(C)C(=O)c1ccc(-c2cccc(C)c2)cc1` (centres unmarked) [Compound 29, N-hydroxy-N′-methyl-2-{methyl[(3′-methylbiphenyl-4-yl)carbonyl]amino}propanediamide] was less than 10 nM.
As for `CNC(=O)C(C(=O)NO)N(C)C(=O)c1ccc(C2CCCCC2)cc1` (centres unmarked) [Compound 30, 2-[(4-cyclohexylbenzoyl)(methyl)amino]-N-hydroxy-N′-methylpropanediamide], the IC50 lay in the range of 10 to 100 nM.
The value for `CNC(=O)C(C(=O)NO)N(C)C(=O)c1ccc(-c2ccc3c(ccn3CCO)c2)cc1` (centres unmarked) [Compound 31, N-hydroxy-2-[{4-[1-(2-hydroxyethyl)-1H-indol-5-yl]benzoyl}(methyl)amino]-N′-methylpropanediamide] was less than 10 nM; that for `CCNc1ccc(-c2ccc(C(=O)N(C)C(C(=O)NC)C(=O)NO)cc2)cc1` (centres unmarked) [Compound 32, 2-[{[4′-(ethylamino)biphenyl-4-yl]carbonyl}(methyl)amino]-N-hydroxy-N′-methylpropanediamide] was less than 10 nM.
With `CNC(=O)C(C(=O)NO)N(C)C(=O)c1ccc(-c2ccc3c(c2)cc(COCOC)n3C)cc1` (centres unmarked) [Compound 33, N-hydroxy-2-[(4-{2-[(methoxymethoxy)methyl]-1-methyl-1H-indol-5-yl}benzoyl)(methyl)amino]-N′-methylpropanediamide] the figure was less than 10 nM; with `CNC(=O)C(C(=O)NO)N(C)C(=O)c1ccc(-c2ccc([C@@H](C)NC(=O)OC(C)(C)C)cc2)cc1` (stereo partly drawn) [Compound 34, tert-butyl[(1R)-1-(4′-{[1-(hydroxyamino)-3-(methylamino)-1,3-dioxopropan-2-yl](methyl)carbamoyl}biphenyl-4-yl)ethyl]carbamate], 10 to 100 nM; with `CCCCOc1ccc(C(=O)N(C)C(C(=O)NC)C(=O)NO)cc1` (centres unmarked) [Compound 35, 2-[(4-butoxybenzoyl)(methyl)amino]-N-hydroxy-N′-methylpropanediamide], 10 to 100 nM.
The value for `CNC(=O)C(C(=O)NO)N(C)C(=O)c1ccc(-c2ccc3ccn(C)c3c2)cc1` (centres unmarked) [Compound 36, N-hydroxy-N′-methyl-2-{methyl[4-(1-methyl-1H-indol-6-yl)benzoyl]amino}propanediamide] was less than 10 nM; that for `CCCCc1ccc(C(=O)N(C)C(C(=O)NC)C(=O)NO)cc1` (centres unmarked) [Compound 37, 2-[(4-butylbenzoyl)(methyl)amino]-N-hydroxy-N′-methylpropanediamide] was 10 to 100 nM.
`CNC(=O)C(C(=O)NO)N(C)C(=O)c1ccc(-c2ccc(NC)c(F)c2)cc1` (centres unmarked) [Compound 38, 2-[{[3′-fluoro-4′-(methylamino)biphenyl-4-yl]carbonyl}(methyl)amino]-N-hydroxy-N′-methylpropanediamide]: the IC50 was less than 10 nM.
With `CNC(=O)C(C(=O)NO)N(C)C(=O)c1ccc(-c2ccc3c(c2)CCN3)cc1` (centres unmarked) [Compound 39, 2-{[4-(2,3-dihydro-1H-indol-5-yl)benzoyl](methyl)amino}-N-hydroxy-N′-methylpropanediamide] the figure was 10 to 100 nM; with `CNC(=O)C(C(=O)NO)N(C)C(=O)c1ccc(-c2ccc3c(c2)cc(CO)n3C)cc1` (centres unmarked) [Compound 41, N-hydroxy-2-[{4-[2-(hydroxymethyl)-1-methyl-1H-indol-5-yl]benzoyl}(methyl)amino]-N′-methylpropanediamide], less than 10 nM; with `CNC(=O)C(C(=O)NO)N(C)C(=O)c1ccc(-c2ccc(SC)cc2)cc1` (centres unmarked) [Compound 42, N-hydroxy-N′-methyl-2-(methyl {[4′-(methylsulfanyl)biphenyl-4-yl]carbonyl}amino)propanediamide], less than 10 nM.
The value for `CNC(=O)C(C(=O)NO)N(C)C(=O)c1ccc(-c2ccc(N(C)C(=O)OC(C)(C)C)c(C)c2)cc1` (centres unmarked) [Compound 44, tert-butyl(4′-{[1-(hydroxyamino)-3-(methylamino)-1,3-dioxopropan-2-yl](methyl)carbamoyl}-3-methylbiphenyl-4-yl)methylcarbamate] was 10 to 100 nM; that for `CNC(=O)C(C(=O)NO)N(C)C(=O)c1ccc(-c2ccc(NC)c(C)c2)cc1` (centres unmarked) [Compound 45, N-hydroxy-N′-methyl-2-(methyl {[3′-methyl-4′-(methylamino)biphenyl-4-yl]carbonyl}amino)propanediamide] was less than 10 nM; that for `CNC(=O)C(C(=O)NO)N(C)C(=O)c1ccc(-c2ccc3c(c2)cc(CN2CCOCC2)n3C)cc1` (centres unmarked) [Compound 46, N-hydroxy-N′-methyl-2-(methyl {4-[1-methyl-2-(morpholin-4-ylmethyl)-1H-indol-5-yl]benzoyl}amino)propanediamide] was 10 to 100 nM.
In the case of `CNC(=O)C(C(=O)NO)N(C)C(=O)c1ccc(OC(F)(F)C(F)F)cc1` (centres unmarked) [Compound 47, N-hydroxy-N′-methyl-2-{methyl[4-(1,1,2,2-tetrafluoroethoxy)benzoyl]amino}propanediamide], the IC50 was more than 100 nM.
Turning to `CNC(=O)C(C(=O)NO)N(C)C(=O)c1ccc(-c2cccc(O)c2)cc1` (centres unmarked) [Compound 48, N-hydroxy-2-{[(3′-hydroxybiphenyl-4-yl)carbonyl](methyl)amino}-N′-methylpropanediamide], the IC50 was 10 to 100 nM.
In the case of `CNC(=O)C(C(=O)NO)N(C)C(=O)c1ccc(-c2ccc(O)cc2)cc1` (centres unmarked) [Compound 49, N-hydroxy-2-{[(4′-hydroxybiphenyl-4-yl)carbonyl](methyl)amino}-N′-methylpropanediamide], the IC50 fell in the range of 10 to 100 nM.
Consider `CNC(=O)C(C(=O)NO)N(C)C(=O)c1ccc(-c2ccc(NC)c(OC)c2)cc1` (centres unmarked) [Compound 50, N-hydroxy-2-[{[3′-methoxy-4′-(methylamino)biphenyl-4-yl]carbonyl}(methyl)amino]-N′-methylpropanediamide], for which the IC50 was in the range of 10 to 100 nM.
The value for `CNC(=O)C(C(=O)NO)N(C)C(=O)c1ccc(-c2ccc(OC(F)F)cc2)cc1` (centres unmarked) [Compound 51, 2-[{[4′-(difluoromethoxy)biphenyl-4-yl]carbonyl}(methyl)amino]-N-hydroxy-N′-methylpropanediamide] was less than 10 nM.
With `CNC(=O)C(C(=O)NO)N(C)C(=O)c1ccc(-c2ccc(N3CCOCC3)cc2)cc1` (centres unmarked) [Compound 53, N-hydroxy-N′-methyl-2-(methyl {[4′-(morpholin-4-yl)biphenyl-4-yl]carbonyl}amino)propanediamide] the figure was 10 to 100 nM; with `CNC(=O)C(C(=O)NO)N(C)C(=O)c1ccc(-c2ccc(N(C)C)c(F)c2)cc1` (centres unmarked) [Compound 54, 2-[{[4′-(dimethylamino)-3′-fluorobiphenyl-4-yl]carbonyl}(methyl)amino]-N-hydroxy-N′-methylpropanediamide], 10 to 100 nM; with `CNC(=O)C(C(=O)NO)N(C)C(=O)c1ccc(-c2ccc(OC)c(OC)c2)cc1` (centres unmarked) [Compound 55, 2-{[(3′,4′-dimethoxybiphenyl-4-yl)carbonyl](methyl)amino}-N-hydroxy-N′-methylpropanediamide], 10 to 100 nM.
Take `CNC(=O)C(C(=O)NO)N(C)C(=O)c1ccc(-c2ccc3c(c2)cc(C)n3C)cc1` (centres unmarked) [Compound 57, 2-{[4-(1,2-dimethyl-1H-indol-5-yl)benzoyl](methyl)amino}-N-hydroxy-N′-methylpropanediamide]: the IC50 was less than 10 nM.
The value for `CNC(=O)C(C(=O)NO)N(C)C(=O)c1ccc(-c2ccccc2F)cc1` (centres unmarked) [Compound 59, 2-{[(2′-fluorobiphenyl-4-yl)carbonyl](methyl)amino}-N-hydroxy-N′-methylpropanediamide] was less than 10 nM; that for `CNC(=O)C(C(=O)NO)N(C)C(=O)c1ccc(-c2ccc(Cc3nn[nH]n3)cc2)cc1` (centres unmarked) [Compound 60, N-hydroxy-N′-methyl-2-(methyl {[4′-(2H-tetrazol-5-ylmethyl)biphenyl-4-yl]carbonyl}amino)propanediamide] was more than 100 nM; that for `CN(C(=O)c1ccc(-c2ccccc2)cc1)C(C(=O)NO)C(=O)NCc1ccccc1` (centres unmarked) [Compound 62, N-benzyl-2-[(biphenyl-4-ylcarbonyl)(methyl)amino]-N′-hydroxypropanediamide] was more than 100 nM.
With `CNC(=O)C(C(=O)NO)N(C)C(=O)c1ccc(/C=C/c2ccccc2)cc1` (centres unmarked) [Compound 63, N-hydroxy-N′-methyl-2-(methyl {4-[(E)-2-phenylethenyl]benzoyl}amino)propanediamide] the figure was 10 to 100 nM.
